Reference: US8722707B1, “Compositions and methods for inhibition of smooth muscle cell proliferation and neointimal hyperplasia” (The Ohio State University, priority 2009, dated 2014)

What was measured:
human aortic SMCs [1] = assay: Serum-stimulated proliferation of human aortic SMCs (viable cell count); format: cell-based
Description: Human aortic SMCs were obtained at passage 3 (AoSMC; Lonza Walkersville, Inc., Walkersville, Md.). The cells were maintained in culture in a humidified incubator at 37 C and 5% CO2 in smooth muscle cell growth medium (SmG M-2). Cells were trypsinized and passaged at 95% confluence. Studies were performed using cells at passages 4 to 6 at 6 0 to 90% confluence. Cells were counted using an automated cell counter (NucleoCounter; New Brunswick Scientific, Edison, N.J.).
We first studied the effect of HO-3867 on serum-stimulated proliferation of human aortic SMCs, in vitro (FIG. 1A).
(§1) The cells were then treated with 0, 0.5, 1, 5, and 10 μM HO-3867 for 24 h, after which the cells were trypsinized and counted for viability. […] We observed inhibition of SMC proliferation by both phase-contrast microscopy (FIG. 1B) and by nuclear staining with DAPI (FIG. 1C). Next, we determined whether the growth inhibition of SMC by HO-3867 was due to cell cycle arrest or apoptosis. SMCs were treated with 10 μM HO-3867 for 12 or 24 h. The cells were then fixed, and cell cycle populations were determined by flow cytometry.

human aortic SMCs [2] = assay: Cell cycle analysis by flow cytometry in SMCs; format: cell-based; settings: 10 μM for 12 or 24 h
Description: Flow cytometry was performed (Selvendiran K, Bratasz A, Tong L, Ignarro L J, and Kuppusamy P, NCX-4016, a nitro-derivative of aspirin, inhibits EGFR and STAT3 signaling and modulates Bcl-2 proteins in cisplatin-resistant human ovarian cancer cells and xenografts. Cell Cycle 7 :8188).
as §1

PTEN [3] = assay: PTEN expression and activation in SMCs (Western blot, immunofluorescence, RT-PCR); format: cell-based, human; design: PTEN mRNA expression: dose or concentration left out as unconfirmed
Description: (§2) Western blotting was performed as reported previously (Selvendiran K, Tong L, Vishwanath S, Bratasz A, Trigg N J, Kutala V K, Hideg K, and Kuppusamy P, EF 24 induces G 2/M arrest and apoptosis in cisplatin-resistant human ovarian cancer cells by increasing PTEN expression. J Biol Chem 282::28609-28618).
(§3) SMCs, grown on Lab-Tek Chamber slides (Nalge Nunc International, Rochester, N.Y.), were fixed with 4% paraformaldehyde for 10 min at room temperature and then washed in PBS containing 0.05% Tween 20. Nonspecific reactions were blocked with Protein B lock Serum-Free (DAKO, Kyoto, Japan) and then incubated with an anti-PTEN, MMP-2, or MMP-9 antibody at 4 C overnight. After washing in PBS containing 0.05% Tween 20, the specimens were treated with Alexa Fluor goat anti-mouse IgG (H+L) antibody (Invitrogen, Carlsbad, Calif.) for 45 min at room temperature and then counterstained by propidium iodide after digestion of RNA by RNase (Invitrogen). The immunostaining of PTEN, MMP-2, and MMP-9 proteins was visualized using a fluorescence microscope (Nikon, Tokyo, Japan).
Total RNA was isolated from SMCs using the RNeasy system according to the instructions of the manufacturer. RNA quantification was done using spectrophotometry. Reverse transcription (RT)-PCR analysis for the mRNA expressions in PTEN and the internal control GAPDH was carried out using a GeneAmp PCR System Veriti thermo cycler (Applied Biosystems, Foster City, Calif.) under the following conditions: initial denaturation at 94 C for 2 min, 35 cycles of amplification (denaturation at 94 C for 30 s, annealing at 50 C for 30 s, and extension at 72 C for 30 s), and extension at 72 C for 5 min. The sequences (5′-3′) for the primer pairs of PTEN and GAPDH, respectively, were as follows:
This was further confirmed by immunofluorescence microscopy (FIG. 2B).
To confirm whether the increase in the expression of PTEN was due to its transcriptional induction by HO-3867, we performed RT-PCR analysis for PTEN mRNA.

ATF-2 = ATF-2 activation in SMCs (Western blot); format: cell-based, human; design: dose or concentration left out as unconfirmed; settings: HO-3867 (FIG. 3A legend)
Description: as §2
(§4) We next wanted to check the involvement of reactive oxygen species-mediated p38 mitogen-activated protein kinase pathways in the activation of ATF-2.

reactive oxygen species = assay: Production of reactive oxygen species in cultured SMCs; format: cell-based, human; settings: data not shown
Description: as §4

[4] = system: p38 mitogen-activated protein kinase; assay: Activation of p38 mitogen-activated protein kinase in cultured SMCs; format: cell-based, human; settings: data not shown
Description: as §4

MMP-2 [5] = assay: MMP-2 expression in SMCs (Western blot, immunofluorescence); format: cell-based, human; settings: 10 μM for 12 or 24 h
Description: as §2, §3
(§5) We investigated whether the HO-3867-induced PTEN expression could suppresses MMP expression in SMCs.

MMP-9 [6] = assay: MMP-9 expression in SMCs (Western blot, immunofluorescence); format: cell-based, human; settings: 10 μM for 12 or 24 h
Description: as §2, §3, §5

NF-κB p65 = NF-κB p65 expression in SMCs (Western blot); format: cell-based, human; settings: 10 μM, 24-h exposure
Description: as §2
In addition, HO-3867 inhibited NF-κB p65, one of the main regulator mechanisms in the inflammatory activation of MMP-9 in SMCs (FIG. 5A).

FAK = FAK expression in SMCs (Western blot); format: cell-based, human; settings: 10 μM, 24-h exposure
Description: as §2

[7] = system: human aortic endothelial cells; assay: Inhibitory effect on human aortic endothelial cells; format: cell-based; settings: 10 μM
[8] = system: p53, p21, ERK1/2, cyclin D1, Akt; assay: Cell cycle regulatory proteins in SMCs (Western blot); format: cell-based, human; settings: SMCs treated with HO-3867
Description: as §2

[9] = system: PTEN cDNA-transfected SMCs; assay: PTEN cDNA-transfected SMCs treated with HO-3867 (survival, cell cycle, cleaved caspase-3); format: cell-based, human
Description: The PTEN siRNA and cDNA transfection experiments were performed as reported (Selvendiran et al., 2007, supra).
We investigated whether the PTEN overexpression was responsible for the inhibition of cell survival and proliferation in SMCs. We used wild-type PTEN cDNA transfection into SMCs for these experiments. Twenty-four hours after transfection, the cells were treated with 10 μM HO-3867 for 12 h.

rat carotid artery = assay: Neointimal formation after balloon injury in rat carotid artery (morphometric analysis); format: in vivo, Sprague-Dawley rats; settings: subcutaneous
Description: (§6) All experiments involving animals were performed in accordance with the relevant guidelines and regulations approved by the Internal Animal Care and Use Committee of The Ohio State University. Sprague-Dawley rats weighing 300 to 350 g were anesthetized by an intraperitoneal injection of ketamine (6 0 mg/kg) and xylazine (5 mg/kg). Under a stereomicroscope, the right common, external, and internal carotid arteries were exposed by a longitudinal midline cervical incision. Blood flow was temporarily interrupted by ligation of the common and internal carotid arteries using vessel clips. The external carotid artery was ligated permanently using 6-0 silk suture. A 2F Fogarty arterial embolectomy catheter (Edwards Lifesciences, Irvine, Calif.) was introduced through an arteriotomy in the external carotid artery just below the ligature and advanced to the common carotid artery. To produce the injury, the balloon was inflated with saline and passed six times with rotation from just under the proximal edge of the omohyoid muscle to the carotid bifurcation. The balloon was then deflated, and the catheter was withdrawn. Blood flow was restored by removing the clips on the common and internal carotid arteries. After visual inspection to ascertain adequate pulsation of the common carotid artery, the surgical incision was closed, and the rats were allowed to recover from anesthesia in a humidified and warmed chamber for 2 to 4 h.
Immediately after completion of the carotid injury procedure, subcutaneous administration of HO-3867 (in 10% DMSO+40% polyethylene glycol+50% PBS) commenced at a dose of 5 or 10 mg/kg/day, and continued for 2 weeks (n=5 for each group). The control group received the vehicle only. After treatment for 14 days, the animals were sacrificed with an overdose of pentobarbital (200 mg/kg), and the carotid arteries were collected for morphometric analysis and isolation of proteins for analysis by Western blotting. […] The intimal and medial areas were measured using MetaMorph software (Molecular Devices, Sunnyvale, Calif.), and intimal/medial ratios were calculated. […]

PTEN [10] = assay: PTEN expression in rat carotid artery tissue after balloon injury; format: in vivo, Sprague-Dawley rats; settings: subcutaneous, 14 days
Description: as §2
(§7) All experiments involving animals were performed in accordance with the relevant guidelines and regulations approved by the Internal Animal Care and Use Committee of The Ohio State University. Sprague-Dawley rats weighing 300 to 350 g were anesthetized by an intraperitoneal injection of ketamine (6 0 mg/kg) and xylazine (5 mg/kg). Under a stereomicroscope, the right common, external, and internal carotid arteries were exposed by a longitudinal midline cervical incision. Blood flow was temporarily interrupted by ligation of the common and internal carotid arteries using vessel clips. The external carotid artery was ligated permanently using 6-0 silk suture. […]
(§8) Immediately after completion of the carotid injury procedure, subcutaneous administration of HO-3867 (in 10% DMSO+40% polyethylene glycol+50% PBS) commenced at a dose of 5 or 10 mg/kg/day, and continued for 2 weeks (n=5 for each group). […] The intimal and medial areas were measured using MetaMorph software (Molecular Devices, Sunnyvale, Calif.), and intimal/medial ratios were calculated. […]

[11] = system: MMP-2, MMP-9, NF-κB p65, pERK1/2, pAkt, cyclin D1, p53, cleaved caspase-3; assay: Western blot of regulatory proteins in rat carotid artery tissue after balloon injury; format: in vivo, Sprague-Dawley rats
Description: as §2
as §6, with “After visual inspection to ascertain adequate pulsation of the common carotid artery, the surgical incision was closed, and the rats were allowed to recover from anesthesia in a humidified and warmed chamber for 2 to 4 h.” left out
Immediately after completion of the carotid injury procedure, subcutaneous administration of HO-3867 (in 10% DMSO+40% polyethylene glycol+50% PBS) commenced at a dose of 5 or 10 mg/kg/day, and continued for 2 weeks (n=5 for each group). […] The intimal and medial areas were measured using MetaMorph software (Molecular Devices, Sunnyvale, Calif.), and intimal/medial ratios were calculated.

MMP-2 [12] = assay: MMP-2 activity by gelatin zymography in rat carotid artery; format: in vivo, Sprague-Dawley rats; settings: treatment group compared with injured/untreated group
Description: (§9) MMP-2 and MMP-9 was determined by gelatin zymography as reported previously (Cho and Reidy, 2002). Matrix metalloproteinase-9 is necessary for the regulation of smooth muscle cell replication and migration after arterial injury. Circ Res 91:845-851).
as §7, §8

MMP-9 [13] = assay: MMP-9 activity by gelatin zymography in rat carotid artery; format: in vivo, Sprague-Dawley rats; settings: treatment group compared with injured/untreated group
Description: as §9, §7, §8

[14] = 10 μM, as early as 1 h of treatment, immunoblot
[15] = Western blot of carotid tissue, 14 days treatment

activation of p38 mitogen-activated protein kinase [4]: did not detect
Compound: CC1(C)C=C(CN2C/C(=C\c3ccc(F)cc3)C(=O)/C(=C/c3ccc(F)cc3)C2)C(C)(C)N1O [HO-3867, 1-[(1-Oxyl-2,2,5,5-tetramethyl-2,5-dihydro-1H-pyrrol-3-yl)methyl]-(3E,5E)-3,5-Bis(4-fluorobenzylidene)piperidin-4-one]
viable cell count (human aortic SMCs [1]; 0, 0.5, 1, 5, and 10 μM for 24 h, FBS-stimulated SMCs): decreased in a concentration-dependent manner | EC50 (human aortic SMCs [1]; 10% FBS-stimulated human SMCs, HO-3867 for 24 h, viable cell count): 3.82 µM | cell-counts (human aortic SMCs [1]; at 1, 5, and 10 μM, 24 h, p<0.05 versus untreated cells): Significantly reduced cell-counts | sub-G1 population (apoptosis) (human aortic SMCs [2]): no effect | G1 cell cycle arrest (human aortic SMCs [2]; time-dependent): induced G1 cell cycle arrest | PTEN activation (pPTEN) (PTEN [3]; [14]): induced | PTEN expression (PTEN [3]; [14]): induced | PTEN mRNA expression (PTEN [3]; RT-PCR, in 3 h): increase | time to ATF-2 activation (ATF-2): ≤ 15 min | production of reactive oxygen species (reactive oxygen species): did not detect | MMP-2 expression (MMP-2 [5]): down-regulated | MMP-9 expression (MMP-9 [6]): down-regulated | NF-κB p65 (NF-κB p65): inhibited | expression of FAK (FAK): down-regulated | inhibitory effect on human aortic endothelial cells [7]: did not have any significant inhibitory effect | Akt level [8]: without any change | ERK1/2 and cyclin D1 [8]: down-regulation | p53 and p21 [8]: induction | survival of PTEN cDNA-transfected cells ([9]; 10 μM HO-3867, compared with untreated or nontransfected cells): even more significant reduction | apoptotic population (sub-G1), PTEN cDNA overexpression plus HO-3867 ([9]; 10 μM, 12 h, compared with PTEN cDNA- or HO-3867-alone-treated groups): significantly increased | cleaved caspase-3 levels, PTEN cDNA+HO-3867-treated cells ([9]; 10 μM, 12 h, compared with untreated or nontransfected cells): substantial increase | inhibition of neointimal formation (rat carotid artery; 5 mg/kg, 14 days, data not shown): did not show any significant inhibition | intima/media ratio (rat carotid artery; daily for 14 days after balloon injury, versus injured/untreated): significantly reduced | intimal thickening (rat carotid artery; daily for 14 days after balloon injury, 10 mg/kg (FIG. 7A)): significantly inhibited | PTEN level in carotid artery tissue (PTEN [10]; 5 mg/kg): restored PTEN to the control level | PTEN level in carotid artery tissue (PTEN [10]; 10 mg/kg): increased the PTEN level significantly above control level | apoptosis in vivo (activation of cleaved caspase-3) ([11]; 10-mg/kg dose): induced apoptosis in vivo | MMP-2, MMP-9, NF-κB p65, pERK1/2, pAkt, and cyclin D1 in tissue [11, 15]: down-regulation | p53 and cleaved caspase-3 in tissue [11, 15]: up-regulation | MMP-2 activity (MMP-2 [12]): significantly down-regulated | MMP-9 activity (MMP-9 [13]): significantly down-regulated
